Key:
[1] = test system: LacI-repressed hts-lacZ fusion; experiment: LacI-repressed hts-lacZ control reporter fusion (β-galactosidase); type: cell-based, E. coli; details: hts-lacZ control (SME3359)
Text: The control strain for the secondary high-throughput screen and subsequent experiments was SME3359, and carries the LacI-repressed fusion and LacI-expressing pHG165lacI. The fusion consists of lacZ under the control of an artificial promoter (Phts) with an induced expression level similar to that of the induced rhaBAD operon. Phts is regulated by Lad and induced with IPTG. The Phts core promoter elements include a near-consensus −35 sequence and a −10 sequence followed by a lacO1 operator sequence that overlaps the transcription start site with the same spacing as lacO1 at lacZYA. To construct the upstream half of Phts, oligo 2829 was annealed to oligo 2788 and the primers were extended using the Expand High Fidelity PCR System (Roche Applied Science, Indianapolis, Ind.). The downstream half of the Phts promoter was constructed by similarly annealing and extending oligos 2789 and 2790.
The top hit identified in the screen was 1-ethyl-4-(nitromethyl)-3-quinolin-2-yl-4H-quinoline, Compound 2. […] Lysis/ONPG buffer (50 μL, as in Primary Screen) was added to each well and the plate was immediately placed into a PowerWave XS plate reader (BioTek Instruments, Inc., Winooski, Vt.), set to read the OD420 of each well every 15 min for 4 hr. […] Due to differences in kinetics of lacZ reporter expression, the rhaB-lacZ strains were analyzed at 4 hours and the hts-lacZ strain was analyzed at 1 hr. Percent activity was calculated for each condition as described above, using the single time point with appropriate OD420 levels for each strain. […] IC50 and maximal inhibition values were calculated using the XLfit add-in for Microsoft Excel (ID Business Solutions, Guildford, UK), and graphs were drawn using Prism (GraphPad, La Jolla, Calif.).
In vivo dose-response assays were performed using a procedure described previously. […] Bacterial cultures were mixed with varying concentrations of SE-1 (2.2% DMSO, final), induced with 6.5 mM IPTG for 3 h at 37° C., lysed and β-galactosidase activity was measured. […] IC50 values were calculated and graphs were drawn using Prism (GraphPad, La Jolla, Calif.).

[2] = test system: Shigella invasion of L-929 cells; experiment: Shigella invasion assay (gentamycin protection) in L-929 cells; type: cell-based, S. flexneri; details: for invasion decrease relative to no inhibitor: Shigella pre-grown with SE-1
Procedure: S. flexneri ipgD^− (SME4331) and mxiH^− (SB116) mutant strains were grown overnight at 30° C. and then diluted to an OD600 of ˜0.1 into TSB plus ampicillin. SE-1 (in DMSO) was added to the cultures at final concentrations of 0, 20, or 40 μM SE-1 and 0.3% DMSO. These cultures and SB116 (no SE-1) were grown at 37° C. in 24-well plates (each with 1.2 ml), in the temperature-controlled chamber of a PowerWave XS plate reader (BioTek Instruments). Bacterial growth was continued at 37° C. with shaking and OD600 monitored every 15 min. A separate sample of SME4331 was grown at 30° C. L-929 cells (mouse fibroblasts, used previously for Shigella invasion assays) that had been grown overnight to ˜90% confluency in 24-well plates were washed 3 times with 1 ml of RPMI each (without FBS or antibiotics), and the final wash was removed by aspiration. (All L-929 incubation steps were carried out at 37° C. in a 5% CO2 humidified atmosphere.) When the OD600 of the bacterial cultures reached 1.0 (˜2.5 h), samples were diluted 100-fold in pre-warmed RPMI (without FBS or antibiotics) and then 300 μl was added to each monolayer of L-929 cells, for a multiplicity of infection of roughly 20. In a control sample, 40 μM SE-1 and bacteria grown at 37° C. without SE-1 were added at the same time to L-929 cells. The 24-well plate was centrifuged (2000×g) for 5 min at room temperature to initiate bacterial-host cell contact, incubated for 45 min at 37° C., washed three times with 1 ml RPMI containing 50 μg/ml gentamycin (or without gentamycin for the control), and incubated at 37° C. for 2 h. Cells were again washed three times with 1 ml RPMI and then lysed in 100 μl of PBS (Mediatech) containing 0.1% triton X-100 (Promega, Madison, Wis.) for 10 min at room temperature. The 100 μl lysates from the gentamycin treated and untreated L-929 cells were mixed with 400 μl TSB, and 100 μl of 1:50 and 1:250 further dilutions were plated onto TSB agar containing ampicillin. Plates were incubated overnight at 37° C. and colonies were counted. The number of colonies obtained from gentamycin treated samples was divided by the number of colonies from control samples without gentamycin and multiplied by 100 to calculate the invasion index.

## CCCCN1C=C(c2ccc3ccccc3n2)C(C[N+](=O)[O-])c2ccccc21 (stereo not drawn) [Compound 1, 1-butyl-4-(nitromethyl)-3-quinolin-2-yl-4H-quinoline]
[1]
  inhibition of the LacI-repressed fusion: small amount of non-specific inhibition
[1]; listed as SE-1
  inhibition of the LacI-repressed fusion: some non-specific inhibition
[2]; 20 μM
  invasion decrease relative to no inhibitor: 1.7 fold
[2]; 40 μM SE-1, Shigella grown at 37° C. without inhibitor
  invasion when SE-1 and Shigella added at the same time to L-929 cells: invaded to the same extent
[2]; 40 μM
  invasion decrease relative to no inhibitor: 3 fold
[2]; Shigella, L929, read-out: maximum inhibition of invasion
  inhibition at 40 µM: 70%
